Values quoted from earlier work, collected in patent US20210236593A1, “METHODS OF SUPPORTING WEIGHT MAINTENANCE BY DECREASING THE ACTIVITY OF FAM46A” (SOCIETE DES PRODUITS NESTLE S.A., priority 2016, published 2021).
“Also recorded” adds a separate entry of the source. Counter-ions that a name gives are not always drawn.

system: FAM46A; conditions: effect of the chemical on FAM46A expression

Q: Which “Interaction Actions” value does the source give for `CC(=O)Nc1ccc(O)cc1` [Acetaminophen, reference compound] here?
A: Affects expression

Q: With `c1ccc2c(c1)cc1ccc3cccc4ccc2c1c34` [Benzo(a)pyrene] as the molecule, how does the “Interaction Actions” value read?
A: Decreases expression

Q: Which “Interaction Actions” value does the source give for `NC(=O)N1c2ccccc2C=Cc2ccccc21` [Carbamazepine, reference compound] here?
A: Affects expression

Q: Which “Interaction Actions” value does the source give for `O=C(NN=C1CCCCC1)C(=O)NN=C1CCCCC1` [Cuprizone, reference compound] here?
A: Decreases expression

Q: With `Nc1ccn([C@@H]2O[C@H](CO)[C@@H](O)[C@@H]2O)c(=O)n1` [Cytarabine, reference compound] as the molecule, how does the “Interaction Actions” value read?
A: Decreases expression

Q: With `CCCCOC(=O)c1ccccc1C(=O)OCCCC` [Dibutyl Phthalate] as the molecule, how does the “Interaction Actions” value read?
A: Decreases expression

Q: With `CCOC(=O)/C=C\C(=O)OCC` [Diethyl maleate] as the molecule, how does the “Interaction Actions” value read?
A: Decreases expression

Q: With `CN(C)C(=O)Nc1ccc(Cl)c(Cl)c1` [Diuron] as the molecule, how does the “Interaction Actions” value read?
A: Decreases expression

Q: With `Nc1ccccc1NC(=O)c1ccc(CNC(=O)OCc2cccnc2)cc1` [Entinostat, reference compound] as the molecule, how does the “Interaction Actions” value read?
A: Decreases expression

Q: Which “Interaction Actions” value does the source give for `N#Cc1nn(-c2c(Cl)cc(C(F)(F)F)cc2Cl)c(N)c1[S+]([O-])C(F)(F)F` (stereo not drawn) [Fipronil] here?
A: Decreases expression

Q: With `OO` [Hydrogen Peroxide] as the molecule, how does the “Interaction Actions” value read?
A: Affects expression; also recorded: Decreases expression

Q: For `Cc1oncc1C(=O)Nc1ccc(C(F)(F)F)cc1` [Leflunomide, reference compound], which “Interaction Actions” value is on record?
A: Decreases expression

Q: With `[CH3][Hg][Cl]` [Methylmercuric chloride] as the molecule, how does the “Interaction Actions” value read?
A: Decreases expression

Q: For `CCc1nn(CCCN2CCN(c3cccc(Cl)c3)CC2)c(=O)n1CCOc1ccccc1` [Nefazodone, reference compound], which “Interaction Actions” value is on record?
A: Decreases expression

Q: For `O=C(O)C(F)(F)C(F)(F)C(F)(F)C(F)(F)C(F)(F)C(F)(F)C(F)(F)C(F)(F)C(F)(F)C(F)(F)F` [Perfluoro-n-undecanoic acid], which “Interaction Actions” value is on record?
A: Decreases expression

Q: With `Cc1cccc(Nc2cc(Cl)nc(SCC(=O)O)n2)c1C` [Pirinixic acid, reference compound] as the molecule, how does the “Interaction Actions” value read?
A: Decreases expression

Q: With `Clc1cc2c(cc1Cl)Oc1cc(Cl)c(Cl)cc1O2` [Tetrachlorodibenzodioxin] as the molecule, how does the “Interaction Actions” value read?
A: Decreases expression

Q: Which “Interaction Actions” value does the source give for `CC1=C(/C=C/C(C)=C/C=C/C(C)=C/C(=O)O)C(C)(C)CCC1` [Tretinoin, reference compound] here?
A: Decreases expression

Q: Which “Interaction Actions” value does the source give for `CC(/C=C/C(=O)NO)=C\[C@@H](C)C(=O)c1ccc(N(C)C)cc1` [Trichostatin A, reference compound] here?
A: Decreases expression

Q: For `CCCC(CCC)C(=O)O` [Valproic Acid, reference compound], which “Interaction Actions” value is on record?
A: Decreases expression

Q: Which “Interaction Actions” value does the source give for `C=CC1(C)OC(=O)N(c2cc(Cl)cc(Cl)c2)C1=O` (stereo not drawn) [Vinclozolin] here?
A: Affects expression; also recorded: Decreases expression
